The values that follow come from patent publication US9513294B2, “Megastokes amino-triazolyl-BODIPY compounds and applications to live neuron staining and human serum albumin FA1 drug site probing” (National University of Singapore, priority 2012, dated 2016).

Entries after “also recorded” stand apart in the source; their conditions may differ.

For series [1], the system named is mixed primary neural cell populations. Briefly: Flow cytometry analysis and FACS sorting of mixed primary neural cells. The class given is cell-based, mouse. The text has this:
Unstained controls are shown in each spectrum from about 0 to about 1 G.
To further analyze this population of compound positive cells, the two populations (Bright and Dim) were sorted out cell re-culture and RNA extraction for gene analysis.

Series [2] is described as follows: Absorbance and fluorescence emission spectra (SpectraMax M2). The conditions noted are these: for λmax Absorp. (nm): absorbance maximum; for λmax Emission (nm): fluorescence emission maximum. It counts as physicochemical. In a few lines:
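Absorbance and emission maxima measured on a SpectraMax M2 spectrophotometer, which also gave quantum yield data; analysis in GraphPrism.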

Series [3] is described as follows: Quantum yield measurements versus Acridine Yellow in EtOH. It counts as physicochemical. The conditions noted are these: for φ (%): quantum yield; for φ (quantum yield): excitation 460 nm. The essentials:
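Fluorescence quantum yield is relative to Acridine Yellow in EtOH (Φ 0.47), with excitation at 460 nm. Integrated emission at 510–700 nm was corrected for absorbance at the excitation wavelength and for solvent refractive index.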

The test system of the next series is live neurons. Briefly: Live cell compound staining and immunostaining of mixed primary neural cell cultures. The following applies: 500 nM, brain cell preparations from P1-P3 mice. The class given is cell-based, mouse. Here is the method:
Cells were stained with 500 nM of MKHA101-3 (Green) and imaged at 10× magnification before fixing with 4% PFA. They were then permeabilized with 0.1% Triton-X and immunostained with GFAP (Red) and neurons (Green).
Cells were stained with 500 nM of NeuO (Green) and imaged at 10× magnification before fixing with 4% PFA. They were then permeabilized with 0.1% Triton-X and immunostained with β-III-tubulin (Tuji, Yellow), GFAP (Red) and O4).
Using the heterogeneous brain cell preparations from P1-P3 mice, cells that were compound positive were also found to be β-III-tubulin positive (FIG. 17).
Using the heterogeneous brain cell preparations from P1-P3 mice, cells that were compound positive were also found to be β-III-tubulin (Tuji) positive (FIG. 18a). […] NeuO appears to stain all neurons regardless of subtype (FIG. 18b).

The test system of series [4] is primary neurons. Briefly: Neuron viability, MTS cell cytotoxicity assay (Promega). The class given is cell-based, mouse. The following applies: 24 hour incubation, 500 nM or higher. Here is the method: Primary neurons were isolated from P1-3 mouse pups by preferential adherence to poly-D-lysine coating. They were left to mature for 5 days before addition of compound at the stipulated concentrations for 24 h. The MTS assay (Promega) was used to assess viability according to manufacturer's instructions.
For long term tracking and downstream functional studies, it is critical that the compound is not cytotoxic towards the cells and that cells remain viable after staining.

For series [5], the system named is primary neurons. Briefly: Primary brain cell screening platform (neurons, astrocytes, microglia). The class given is cell-based. The following applies: 500 nM, 1 hour. The text has this: Esterification to MKAA (and possibly other esters) improves permeability into intact live cells while maintaining staining specificity (FIG. 12). The acetylated MKAA undergoes rapid hydrolysis by cellular esterases after crossing the live cell membrane generates the active MKHA compound responsible for the fluorescence response. FIGS. 13 and 14 show the structures of example MKHA compounds that have been synthesized and tested for primary neuron staining.
For neuron probe discovery, a primary brain cell screening platform was utilized, which involved the use of primary neurons, astrocytes and microglia isolated by differential adhesion methods. These cells were prepared alongside one another in 384-well microplates and incubated in duplicate with 5,000 DOFL compounds at 500 nM concentrations for 1 hour at 4-5 days post-isolation (FIG. 15). […] The compound MKHA374-48 is alternately referred to herein as NeuO (pronounced “neo”) for Neuron Orange.

Another series relates to neurons. Briefly: Time lapse imaging of in vitro neuronal development. The class given is cell-based, mouse. The conditions noted are these: 500 nM. The text has this: The survival of the cells and dye signal is critical in time lapse studies to analyze neuronal development and interaction with other neural cells.
Series [6] can be described thus: Effect of solvent viscosity on fluorescence intensity (molecular rotor). The class given is physicochemical. The following applies: 100 μM, rt, solvents of similar polarity. How it is done:
The fluorescence spectra of compound (BDC-9) in different solvents of similar polarities but covering a range of viscosities were analyzed. […] Increased solvent viscosity reduces bond rotation at positions 3 and 5 of the BODIPY core, which, without being bound to theory, minimizes non-radiative energy loss and leads to higher quantum yields (24).

Another series addresses HSA (fatty-acid free) (Homo sapiens, UniProt P02768). Briefly: Competition with site-selective HSA-binding drugs. The following applies: from competition assays. How it is done: HSA (fatty-acid free) (0.34 mg/mL, 5 μM) was preincubated for 2 h in phosphate buffer with different concentrations of the drugs (up to 200 μM) before BDC-9 (10 μM) was added. F is the fluorescence intensity at the indicated drug concentration and F0 is the fluorescence intensity with no drug added; λexc.: 460 nm, λem.: 575 nm; values are represented as means and error bars as standard deviations (n=3).
The binding properties of BDC-9 were studied. HSA consists of at least nine binding sites (34-38), amongst which fatty acid (FA) sites 1, 3 and 4 (Sudlow Site II), 5, 6 and 7 (Sudlow Site I) are known to have affinity for drug compounds (31,39-44). […] To verify specific binding and determine the binding site(s) of BDC-9 in HSA, competition assays using drugs binding to the respective sites (e.g. hemin (FA1 site)(71,72), dansyl-L-norvaline (FA3/4 sites) (73), propofol (FA3/4 and FA5 sites) (35), ibuprofen (FA3/4 and FA6 sites) (74) and warfarin (FA7 site) (74) were performed (75).
There have been several reports of fluorescent dyes binding to FA3/4 (48,49,73), FA6 (51) and FA7 (54,55,76) sites. The present invention represents the first known experimentally proven fluorescent dye binding to the FA1 site (76), in which binding is not dependent on contact with bound lipid (72). BDC-9 is therefore a valuable probe for examining the heme region on HSA.

In series [7] the target is T1, HSA (Homo sapiens, UniProt P02768). Briefly: Determination of dissociation constant with HSA (fluorescence titration, one-site model). The following applies: HSA 10 μM, one-site specific binding model. Here is the method: HSA (10 μM) was titrated against serial concentrations of BDC-9 (0.47 to 60 μM) and the fluorescence intensities were measured at 575 nm (λexc=460 nm). The fluorescence intensity of bound BDC-9 at each concentration was determined using the equation:
[formula] where F and F0 are the fluorescence intensities of a given concentration of BDC-9 with and without HSA respectively. Fsat is the fluorescence intensity at the same concentration of BDC-9 when fully bound.

In series [8] the target is T1, HSA. Briefly: Quantification of HSA in spiked urine samples. The following applies: urine spiked with HSA up to 1 mg/mL. How it is done:
HSA (0 to 1 mg/mL) was added to 10% urine from healthy individuals in phosphate buffer (pH=7.3). BDC-9 was added at 10 μM concentration; λexc.: 460 nm, λem.: 575 nm; values represented as means (n=3) and error bars as standard deviations; linear regression: R^2=0.998.
In order to examine the selectivity and sensitivity of BDC-9 in complex matrices, BDC-9 was utilized to quantify the amount of HSA in urine samples. Microalbuminuria, which involves an albumin excretion rate of 15 to 40 μg/mL (80, 81), is a well-established cardiovascular risk marker and an indication of liver and renal disease (32,33). The fluorescence response of BDC-9 was analyzed in urine that was spiked with different amounts of HSA, up to 1 mg/mL.

The target in series [9] is T1, HSA. Briefly: Fluorescence response to serial dilutions of HSA. It counts as binding. Here is the method:
Values are represented as means (n=3).
Mixtures of BDC-9 with HSA were prepared in phosphate buffer (pH 7.3, 1% DMSO) at room temperature and fluorescence measurements were taken after incubation for 2 h unless otherwise stated.

Series [10] relates to serum albumins from rat (RSA), porcine (PSA), rabbit (RbSA), sheep (SSA) and bovine (BSA). Briefly: Species selectivity: fluorescence response to serum albumins of different species. The conditions noted are these: 10 μM, albumins 1.2×10^−4 to 4 mg/mL. It counts as binding. Here is the method: FIGS. 7a and 7b show species selectivity of BDC-9. […] FIG. 7b is a photographic image of BDC-9 (10 μM) mixed with respective albumins. Irradiation with a handheld UV lamp at 365 nm.
The selectivity of BDC-9 towards serum albumins from different species was investigated. Serum albumins represent a family of proteins with a high degree of similarity in their primary sequence across various species (˜75% homology) (34,39,40,62). […] The fluorescence response of BDC-9 was evaluated against serial concentrations of serum albumins from rat (RSA), porcine (PSA), rabbit (RbSA), sheep (SSA) and bovine (BSA).

For a further series, the target named is human serum albumin (Homo sapiens, UniProt P02768). Briefly: In vitro fluorescence screening against 84 biologically relevant analytes / 16 proteins. The class given is binding. The conditions noted are these: 10 μM, 10 mM HEPES pH 7.4, 1% DMSO. How it is done: F0 is the fluorescence intensity of BDC-9 in HEPES buffer. Values are represented as means (n=4).
human serum albumin, sequence (P02768 25-609): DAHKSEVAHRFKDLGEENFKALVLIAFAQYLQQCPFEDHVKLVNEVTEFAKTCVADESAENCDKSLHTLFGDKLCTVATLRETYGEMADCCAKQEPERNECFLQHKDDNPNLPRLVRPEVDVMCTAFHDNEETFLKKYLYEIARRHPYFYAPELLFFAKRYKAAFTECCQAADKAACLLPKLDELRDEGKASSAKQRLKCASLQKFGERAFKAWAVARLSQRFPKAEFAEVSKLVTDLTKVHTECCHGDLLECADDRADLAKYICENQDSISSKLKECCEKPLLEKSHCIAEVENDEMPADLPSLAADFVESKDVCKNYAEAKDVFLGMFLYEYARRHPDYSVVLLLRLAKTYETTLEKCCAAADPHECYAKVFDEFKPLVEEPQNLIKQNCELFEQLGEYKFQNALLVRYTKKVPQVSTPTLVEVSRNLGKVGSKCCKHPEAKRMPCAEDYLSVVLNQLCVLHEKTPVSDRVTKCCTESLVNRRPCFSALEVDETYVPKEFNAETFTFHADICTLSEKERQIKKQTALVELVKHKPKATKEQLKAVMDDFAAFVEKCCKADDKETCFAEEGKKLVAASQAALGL
Amino-triazolyl-BODIPYs (10 μM) were screened in 10 mM HEPES buffer, pH 7.4, containing 1% DMSO. Fluorescence intensities were measured using a SpectraMax M2 platereader in 384-well plates. Excitation was provided at each compound's excitation range, and emission spectrum was obtained starting from at least 30 nm beyond the excitation wavelength. All the analytes were tested at four serial concentrations.
The fluorescent response of BDC, BDCAC and BDCCA was examined against 84 biologically relevant analytes that were categorized into nine different sets (i.e. pH standards, viscous solutions, genetic macromolecules, peptides, metal ions, redox molecules, nucleic acids, proteins and other metabolites).

T1 sequence (P02768 25-609): as above
HSA (fatty-acid free), sequence (P02768 25-609): as above

`CCCC(C)c1cn(-c2ccc3n2[B-](F)(F)[N+]2=C(NCc4ccccc4C)C=CC2=C3c2ccc(NC(=O)CCl)cc2)nn1` (stereo not shown) [MKCA101-3]: the “flow cytometry profile of stained mixed neural cell populations” value in [1] is given as “neuronal population segregating from the main population”. For the same compound, in series [2] (MKCA compound library), the “λmax Absorp. (nm)” value is recorded as 464 nm and the “λmax Emission (nm)” value is on record as 563 nm. The “φ (%)” value in series [3] (MKCA compound library) was 31.22%.

As to `CCCc1cn(C2=[N+]3C(=C(c4ccc(NC(=O)CO)cc4)c4ccc(NCc5ccccc5)n4[B-]3(F)F)C=C2)nn1` [MKHA374-48, 7-(benzylamino)-5,5-difluoro-10-(4-(2-hydroxyacetamido)phenyl)-3-(4-propyl-1H-1,2,3-triazol-1-yl)-5H-dipyrrolo[1,2-c:2′,1′-][1,3,2]diazaborinin-4-ium-5-uide], in the series with live neurons, the “staining specificity for neurons over other neural cells” value is “stains the cell bodies and dendrites specifically over other neural cells”. The “flow cytometry profile of stained mixed neural cell populations” value in series [1] is on record as “neuronal population segregating from the main population”. Besides, in the series with primary neurons [4], the “effect on cell viability” value is given as “did not affect cell viability significantly”. For the same compound, in series [2] (FIG. 2 normalized spectra), the “absorbance λmax” value amounted to 468 nm and the “emission λmax” value is given as 557 nm. Further, in series [2] (MKHA compounds), the “λmax Absorp. (nm)” value came out at 468 nm and the “λmax Emission (nm)” value was found to be 557 nm. Also, the “fluorescence response / selectivity towards primary neurons in screening” value in the series with primary neurons [5] is listed as “superior selectivity towards live neurons compared to the original MKHA101-3”. Moreover, the “φ (%)” value in [3] (MKHA compounds) is on record as 0.3684%. Further, the “time lapse imaging of stained neurons” value in the series on neurons was “Bright NeuO stained neurons can be seen migrating from the interior of the sphere”.

Regarding `Nc1ccc(C2=C3C=CC(N4CCCCC4)=[N+]3[B-](F)(F)n3c2ccc3-n2cc(-c3ccccc3)nn2)cc1` [BDC-9, 10-(4-aminophenyl)-5,5-difluoro-7-(4-phenyl-1H-1,2,3-triazol-1-yl)-3-(piperidin-1-yl)-5H-dipyrrolo[1,2-c:2′,1′-f][1,3,2]diazaborinin-4-ium-5-uide], in [6], the “fluorescence intensity versus solvent viscosity” value was “systematically increased in more viscous alcohols; also recorded: strong correlation between fluorescence intensity and viscosity”. Moreover, the “binding site on HSA” value on HSA (fatty-acid free) was “binding to the FA1 site (heme site) of HSA”. At HSA [7], this compound displayed a Kd of 12.7 ± 0.4 µM. In addition, the “correlation between fluorescence response and amount of HSA in urine” value at HSA [8] is recorded as “excellent linear correlation”. In addition, on HSA [9] (10 μM, phosphate buffer, λexc 460 nm), the “increase in fluorescence upon binding to HSA” value was 220 fold. Besides, the “limit of detection of HSA” value on HSA [9] (S/N=3) turned out to be 0.3 µg/mL. In addition, the “selectivity towards HSA versus serum albumins from other species” value in series [10] is listed as “marked selectivity towards HSA with marginal response on the other species”. Also, in series [2] (BDC library, Table 2), the “λmax Absorp.” value is listed as 472 nm and the “λmax Emission” value is listed as 581 nm. Moreover, on human serum albumin, the “selectivity of fluorescence response among proteins and analytes” value is listed as “remarkable selectivity towards human serum albumin”. In series [3] (BDC library, Table 2), the “φ (quantum yield)” value was found to be 0.22%.

For `CC(C)Cc1cn(-c2ccc3n2[B-](F)(F)[N+]2=C(N4CCc5ccccc5C4)C=CC2=C3c2ccc(N)cc2)nn1` [MK66-43], in series [2] (MK library, Table 5), the “λmax Absorp.” value came to 480 nm and the “λmax Emission” value turned out to be 582 nm. In addition, the “φ (quantum yield)” value in series [3] (MK library, Table 5) is 0.14%.

Regarding `Nc1ccc(C2=C3C=CC(N4CCCCC4)=[N+]3[B-](F)(F)n3c2ccc3-n2cc(C3=CCCCC3)nn2)cc1` [BDC-37], in series [2] (BDC library, Table 2), the “λmax Absorp.” value amounted to 474 nm and the “λmax Emission” value came to 579 nm. In series [3] (BDC library, Table 2), the “φ (quantum yield)” value is listed as 0.12%.
